Results from the supplement of paper PMC10307832.

Assays:
Experiment in all cases: relative viability (nuclei count vs DMSO), 5 days (fraction); higher = more cells survive
Fedratinib + Palbociclib = compound: Cc1cnc(Nc2ccc(OCCN3CCCC3)cc2)nc1Nc1cccc(S(=O)(=O)NC(C)(C)C)c1 [Fedratinib] + CC(=O)c1c(C)c2cnc(Nc3ccc(N4CCNCC4)cn3)nc2n(C2CCCC2)c1=O [Palbociclib] (partner 0.5 µM)
Outline: (§1)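 Values are medians from duplicate plates. Each reflects relative viability, defined as the nuclei count of treated wells over that of vehicle wells. Lung cancer cell lines in 1536-well plates were pin-tool dosed one day after seeding with one drug alone or with a fixed anchor-drug dose plus five library-drug doses (not always all listed) in √10 steps, then fixed, stained and imaged at 4× after 5 days.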

GW-2580 + Palbociclib = compound: COC1=CC=C(C=C1)COC2=C(C=C(C=C2)CC3=CN=C(N=C3N)N)OC [GW-2580] + CC(=O)c1c(C)c2cnc(Nc3ccc(N4CCNCC4)cn3)nc2n(C2CCCC2)c1=O [Palbociclib] (partner 0.5 µM)
Outline: as §1

Fedratinib + Foretinib = compound: Cc1cnc(Nc2ccc(OCCN3CCCC3)cc2)nc1Nc1cccc(S(=O)(=O)NC(C)(C)C)c1 [Fedratinib] + COc1cc2c(Oc3ccc(NC(=O)C4(C(=O)Nc5ccc(F)cc5)CC4)cc3F)ccnc2cc1OCCCN1CCOCC1 [Foretinib] (partner 0.25 µM)
Outline: as §1

GW-2580 + Dasatinib = compound: COC1=CC=C(C=C1)COC2=C(C=C(C=C2)CC3=CN=C(N=C3N)N)OC [GW-2580] + Cc1nc(Nc2ncc(C(=O)Nc3c(C)cccc3Cl)s2)cc(N2CCN(CCO)CC2)n1 [Dasatinib] (partner 0.075 µM)
Outline: as §1

Fedratinib + Pictilisib = compound: Cc1cnc(Nc2ccc(OCCN3CCCC3)cc2)nc1Nc1cccc(S(=O)(=O)NC(C)(C)C)c1 [Fedratinib] + CS(=O)(=O)N1CCN(Cc2cc3nc(-c4cccc5[nH]ncc45)nc(N4CCOCC4)c3s2)CC1 [Pictilisib] (partner 1 µM)
Outline: as §1

Row | Cell Line | relative viability (Fedratinib + Palbociclib; first compound 0.1 µM) | relative viability (Fedratinib + Palbociclib; first compound 0.3162 µM) | relative viability (Fedratinib + Palbociclib; first compound 1 µM) | relative viability (GW-2580 + Palbociclib; first compound 0.08 µM) | relative viability (GW-2580 + Palbociclib; first compound 0.8 µM) | relative viability (GW-2580 + Palbociclib; first compound 2.53 µM) | relative viability (GW-2580 + Palbociclib; first compound 8 µM) | relative viability (Fedratinib + Foretinib; first compound 0.1 µM) | relative viability (Fedratinib + Foretinib; first compound 0.3162 µM) | relative viability (Fedratinib + Foretinib; first compound 1 µM) | relative viability (GW-2580 + Dasatinib; first compound 0.08 µM) | relative viability (GW-2580 + Dasatinib; first compound 0.8 µM) | relative viability (GW-2580 + Dasatinib; first compound 2.53 µM) | relative viability (GW-2580 + Dasatinib; first compound 8 µM) | relative viability (Fedratinib + Pictilisib; first compound 0.1 µM) | relative viability (Fedratinib + Pictilisib; first compound 0.3162 µM) | relative viability (Fedratinib + Pictilisib; first compound 1 µM)
1 | HOP-62 | 0.437 | 0.426 | 0.393 | 0.584 | 0.438 | 0.481 | 0.515 | 1.1 | 0.982 | 0.959 | 0.756 | 0.728 | 0.639 | 0.697 | 0.809 | 0.709 | 0.531
2 | CAL-12T | 0.295 | 0.411 | 0.446 | 0.639 | 0.416 | 0.517 | 0.413 | 0.934 | 0.992 | 1.08 | 0.485 | 0.443 | 0.438 | 0.505 | 0.454 | 0.615 | 0.162
3 | NCI-H520 | 0.149 | 0.214 | 0.164 | 0.228 | 0.206 | 0.228 | 0.208 | 0.797 | 0.736 | 0.726 | 0.203 | 0.238 | 0.204 | 0.252 | 0.267 | 0.315 | 0.215
4 | NCI-H1755 | 0.438 | 0.462 | 0.413 | 0.458 | 0.422 | 0.455 | 0.41 | 0.937 | 0.977 | 0.874 | 0.488 | 0.553 | 0.388 | 0.396 | 0.385 | 0.458 | 0.399
5 | NCI-H2023 | 0.391 | 0.356 | 0.248 | 0.398 | 0.477 | 0.368 | 0.31 | 0.8 | 0.873 | 0.643 | 0.636 | 0.652 | 0.542 | 0.587 | 0.245 | 0.246 | 0.0814
6 | NCI-H2009 | 0.185 | 0.254 | 0.161 | 0.193 | 0.179 | 0.212 | 0.248 | 1.12 | 1.23 | 1.1 | 0.319 | 0.305 | 0.299 | 0.27 | 0.699 | 0.919 | 0.143
